Source: patent US5115096A, “Amphiregulin: a bifunctional growth modulating glycoprotein” (Oncogen, priority 1989, dated 1992)
Where two headings read alike, the source gives them in different places.

Assays:
Assay type in all cases: cell-based, human
[1] = test system: AR RNA in MCF-7 (HTB 22) cells; assay: Northern blot of AR RNA in MCF-7 cells
Source text: c-AMP is another regulatory molecule which exerts diverse effects on cells, primarily through cAMP-dependent protein kinase A. Intracellular levels of cAMP are regulated by a combination of receptor-mediated activation and adenylate cyclase inhibition. Some studies indicate that TPA and cAMP induced gene expression may converge as a common pathway. To study the regulation of AR gene expression, we chose to look at the effect of various activators or inhibitors of both these regulatory pathways on the production of AR specific RNA in MCF-7 cells.
Forskolin is a drug which activates adenylate cyclase, resulting in increased intracellular cAMP.
Ten or twenty μg of total RNA was electrophoresed on 1.2% agarose/formaldehyde gels for Northern analysis. The agarose/formaldehyde gels were prepared in 40 mM N-morpholinopropanesulfonic acid (MOPS), pH 7.0/1 mM EDTA/10 mM sodium acetate/2/2 M deionized formaldehyde (pH5.6) in an IBI VCV gel apparatus with frosted plates. RNA was denatured in the same buffer with 50% formamide at 65° C., and run in 1×MOPS, at 20-30 mA for 3-5 hr. […] Bands were scored as (+) if clearly visible after overnight exposure, (+/-) if visible after 3 day exposure, and (++) if detectable after 6 hr. […]

[2] = test system: AR RNA in BT-474 (HTB 20) cells; assay: Northern blot of AR RNA, tumor cell line panel; set-up: key: +: clearly visible after overnight exposure; +/-: visible after 3 day exposure; ++: detectable after 6 hr; details: 24 hour induction with TPA
Protocol: (§1) Ten or twenty μg of total RNA was electrophoresed on 1.2% agarose/formaldehyde gels for Northern analysis. The agarose/formaldehyde gels were prepared in 40 mM N-morpholinopropanesulfonic acid (MOPS), pH 7.0/1 mM EDTA/10 mM sodium acetate/2/2 M deionized formaldehyde (pH5.6) in an IBI VCV gel apparatus with frosted plates. RNA was denatured in the same buffer with 50% formamide at 65° C., and run in 1×MOPS, at 20-30 mA for 3-5 hr. The gel was rinsed in 10×SSC for 30 min and transferred to Hybond-N membranes (Amersham), UV-crosslinked (1200 μJoules), prehybridized and hybridized in 5×SSPE (1×SSPE is 0.18 M NaCl/10 mM sodium phosphate, pH 7.7, 0.1 mM EDTA), 5×Denhardt's, 0.5% SDS, and 20 μg/ml denatured salmon sperm DNA as carrier. Hybridizations were carried out at 42° C. for 16 hr with 2×10^6 cpm/ml of the ^ 32 P-ARBP1. Blots were washed several times in 2×SSC with 0.1% SDS at room temperature followed by 1×SSC/0.1% SDS, 65° C., and exposed on Kodak X-OMAT with two Dupont Lightning Plus intensifying screens at -70° C. Bands were scored as (+) if clearly visible after overnight exposure, (+/-) if visible after 3 day exposure, and (++) if detectable after 6 hr.
(§2) A panel of tumor cell lines was tested for AR RNA levels both before and after 24 hour induction with TPA. With but a few exceptions, the only sources of detectable AR RNA were in human breast cancer lines treated with TPA.

AR RNA in BT-476 cells = assay: Northern blot of AR RNA, tumor cell line panel; set-up: key: +: clearly visible after overnight exposure; +/-: visible after 3 day exposure; ++: detectable after 6 hr; details: BT-476, 24 hour induction with TPA
Protocol: as §1, §2

[3] = test system: AR RNA in HBL-100 (HTB 124) cells; assay: Northern blot of AR RNA, tumor cell line panel; set-up: key: +: clearly visible after overnight exposure; +/-: visible after 3 day exposure; ++: detectable after 6 hr; details: 24 hour induction with TPA
Protocol: as §1, §2

[4] = test system: AR RNA in HEPM (CRL 1486) cells; assay: Northern blot of AR RNA, tumor cell line panel; set-up: key: +: clearly visible after overnight exposure; +/-: visible after 3 day exposure; ++: detectable after 6 hr; details: 24 hour induction with TPA
Protocol: as §1, §2

[5] = test system: AR RNA in HUF foreskin fibroblast cells; assay: Northern blot of AR RNA, tumor cell line panel; set-up: key: +: clearly visible after overnight exposure; +/-: visible after 3 day exposure; ++: detectable after 6 hr; details: 24 hour induction with TPA
Protocol: as §1, §2

[6] = test system: AR RNA in JEG-3 (HTB 36) cells; assay: Northern blot of AR RNA, tumor cell line panel; set-up: key: +: clearly visible after overnight exposure; +/-: visible after 3 day exposure; ++: detectable after 6 hr; details: 24 hour induction with TPA
Protocol: as §1, §2

[7] = test system: AR RNA in MDA-MB-157 (HTB 24) cells; assay: Northern blot of AR RNA, tumor cell line panel; set-up: key: +: clearly visible after overnight exposure; +/-: visible after 3 day exposure; ++: detectable after 6 hr; details: 24 hour induction with TPA
Protocol: as §1, §2

[8] = test system: AR RNA in MDA-MB-361 (HTB 27) cells; assay: Northern blot of AR RNA, tumor cell line panel; set-up: key: +: clearly visible after overnight exposure; +/-: visible after 3 day exposure; ++: detectable after 6 hr; details: 24 hour induction with TPA
Protocol: as §1, §2

[9] = test system: AR RNA in SK-BR-3 (HTB 30) cells; assay: Northern blot of AR RNA, tumor cell line panel; set-up: key: +: clearly visible after overnight exposure; +/-: visible after 3 day exposure; ++: detectable after 6 hr; details: 24 hour induction with TPA
Protocol: as §1, §2

[10] = test system: AR 5' flanking region driving CAT gene in MCF-7 cells; assay: CAT assay, AR 5' regulatory region/CAT constructs transiently introduced into MCF-7 cells
Protocol: MCF-7 cells were grown as described in Section 6.2.1 supra. For each assay, 1-2×10^6 cells were plated in a 100 mm dish in 10 ml media, and 24 hours later, 20 μg calcium phosphate precipitated supercoiled plasmid DNA was added to the cells (Southern and Berg, 1982). The cells were rinsed with fresh media 4 hours after transfection and subjected to a 25% glycerol shock for 90 seconds. Cells were again rinsed and overlayed with 20 ml fresh media containing 0 or 100ng/ml TPA. Cells were washed and harvested 40 hours after glycerol shock and lysed by sonication in 100 μl 1 0.25 M Tris-HCl (pH 7.8). CAT activity was assayed essentially as detailed by Gorman et al. (1982). Cell extract (3-50 μl) was added to […] ^14 C-chloramphenicol (NEN), in a 150 μl reaction volume of 0.5 M Tris (pH 7.8), 0.5 mM AcetylCoA. The reactions were incubated at 37° C. for 2 hours, extracted with 1 ml ethyl acetate and developed on silica gel TLC plates with CHCl3 :1-butanol (95:5). TLC plates were dried and autoradiographed. The acetylated and unacetylated ^14 C-chloramphenicol was quantitated by counting excised spots in Optifluor. Units of CAT enzymatic activity were calculated as μg chloramphenicol acetylated per hour per μg protein in the cell extract.
Primer extension was performed on MCF-7 RNA with 2 separate oligonucleotides from exon 1. […]

[11] = test system: transcription of AR in MCF-7 cells; assay: Nuclear run-off, transcription of AR; details: in response to TPA
MCF-7 cells = assay: Morphology and cell number of MCF-7 cells; details: MCF-7 cells compared to untreated cells
Source text: TPA induces dramatic morphological changes in a dose-dependent manner. Following TPA treatment, MCF-7 cells lose their well defined morphology, become rounded, and spread out.

Compound | AR mRNA ([1]; MCF-7 cells, 25 uM for 4 hours) | time after treatment at which increase in the 1.4 kb AR RNA species was seen ([1]; MCF-7 cells treated with TPA for 0-48 hours) | AR RNA Level, TPA INDUCED [2] | AR RNA Level, TPA INDUCED (AR RNA in BT-476 cells) | AR RNA Level, TPA INDUCED [3] | AR RNA Level, TPA INDUCED [4] | AR RNA Level, TPA INDUCED [5] | AR RNA Level, TPA INDUCED [6] | AR RNA Level, TPA INDUCED [7] | AR RNA Level, TPA INDUCED [8] | AR RNA Level, TPA INDUCED [9] | fold induction at 0.1 µg/mL ([10]; MCF7, 40 h, pXARE1CAT (-648 to +40) in MCF-7 cells, addition of TPA, read-out: stimulation of CAT activity) | fold induction at 0.1 µg/mL ([10]; MCF7, deletion mutants E1a-E1h in MCF-7 cells, 40 hour treatment with 100 ng/ml TPA, read-out: enhanced expression of 5' CAT deletion constructs) | increased transcription of AR [11] | effect on cell number (MCF-7 cells)
C=C[C@@]1(C)CC(=O)[C@]2(O)[C@@]3(C)[C@@H](O)CCC(C)(C)[C@@H]3[C@H](O)[C@H](OC(C)=O)[C@@]2(C)O1 [Forskolin] | marked stimulation | – | – | – | – | – | – | – | – | – | – | – | – | – | –
CCCCCCCCCCCCCC(=O)O[C@@H]1[C@@H](C)[C@@]2(O)[C@@H](C=C(CO)C[C@]3(O)C(=O)C(C)=C[C@@H]23)[C@@H]2C(C)(C)[C@]12OC(C)=O [TPA, 12-0-tetradecanoyl-phorbol-13-acetate] | – | ≤ 1 h | + | + | + | +/- | +/- | +/- | ++ | ++ | + | 6 to 7 | 3.5 to 7 | 3-5 fold | dose-dependent reduction in cell number
